Results reported in ChEMBL document CHEMBL4507265 (2021).

Columns and labels:
[1] = molecular target: Alpha-2C adrenergic receptor (Homo sapiens, UniProt P18825); assay: GPCRScan assay: inhibition of Alpha2C; parameters: radioligand conc. used [nm] 0.5 – 1.0, parental cells stable MDCK
[2] = GPCRScan assay: inhibition of GABA/PBR; parameters: species or system Rattus norvegicus; radioligand conc. used [nm] 0.3 – 2.0, parental cells brain tissue
[3] = molecular target: Mitotic checkpoint serine/threonine-protein kinase BUB1 (Homo sapiens) (UniProt O43683); details: Compound concentration 1000.0 nM
[4] = molecular target: 5-hydroxytryptamine receptor 2C (Homo sapiens, UniProt P28335); assay: GPCRScan assay: inhibition of 5-HT2C; parameters: radioligand conc. used [nm] 1.0 – 2.5, parental cells HEK T
[5] = molecular target: Epidermal growth factor receptor (Homo sapiens) (UniProt P00533); assay: Inhibition of Epidermal Growth Factor (EGF) at 10 µM in the Eurofins-Panlabs radioligand binding assay (Eurofins_assay_225510); details: Compound concentration 10.0 uM
[6] = molecular target: Gamma-aminobutyric acid type B receptor subunit 1 (Homo sapiens) (UniProt Q9UBS5); assay: Inhibition of GABAB1A at compound concentration of 10.0 uM in the Eurofins-Panlabs radioligand binding assay (Eurofins_assay_228610); parameters: ligand concentration 4 nM; details: Compound concentration 10.0 uM
[7] = molecular target: Glucocorticoid receptor (Homo sapiens) (UniProt P04150); assay: Glucocorticoid Eurofins-Panlabs radioligand binding assay; details: Compound concentration 10.0 uM
[8] = molecular target: Glutamate receptor ionotropic, kainate (Rattus norvegicus) (UniProt P22756+Q01812+P42260+P42264+Q63273); assay: Inhibition of Glutamate, Kainate at 10 µM in the Eurofins-Panlabs radioligand binding assay (Eurofins_assay_232700); details: Compound concentration 10.0 uM
[9] = organism: Rattus norvegicus; assay: Inhibition of Imidazoline I2, Central at 10 µM in the Eurofins-Panlabs radioligand binding assay (Eurofins_assay_241000); parameters: ligand concentration 2 nM; details: Compound concentration 10.0 uM
[10] = organism: Mus musculus; assay: Inhibition of Interleukin IL-1 at 10 µM in the Eurofins-Panlabs radioligand binding assay (Eurofins_assay_243520); parameters: ligand concentration 0.1 nM; details: Compound concentration 10.0 uM
[11] = molecular target: Neuropeptide Y receptor type 1 (Homo sapiens) (UniProt P25929); assay: Inhibition of Neuropeptide Y Y1 at 10 µM in the Eurofins-Panlabs radioligand binding assay (Eurofins_assay_257010); details: Compound concentration 10.0 uM
[12] = molecular target: hERG (KCNH2) (Homo sapiens, UniProt Q12809); assay: Inhibition of Potassium Channel hERG at 10 µM in the Eurofins-Panlabs radioligand binding assay (Eurofins_assay_265900); parameters: ligand concentration 1.5 nM, non-specific ligand with concentration Astemizole, incubation time 60 min, incubation temperature 25 °C; details: HEK-293 cells that express recombinant human hERG, probe [3H] Astemizole, 1.5 nM, compound concentration 10 uM
[13] = organism: Rattus norvegicus; assay: Inhibition of Rolipram at 10 µM in the Eurofins-Panlabs radioligand binding assay (Eurofins_assay_268811); assay type: protein assay; parameters: ligand concentration 1.8 nM; details: Compound concentration 10.0 uM
[14] = molecular target: Sigma non-opioid intracellular receptor 1 (Homo sapiens) (UniProt Q99720); assay: Sigma 1 Eurofins-Panlabs radioligand binding assay; parameters: ligand concentration 8 nM; details: Compound concentration 10.0 uM
[15] = molecular target: Substance-P receptor (Homo sapiens) (UniProt P25103); assay: Inhibition of Tachykinin NK1 at 10 µM in the Eurofins-Panlabs radioligand binding assay (Eurofins_assay_255520); parameters: ligand concentration 0.8 nM; details: Compound concentration 10.0 uM
[16] = molecular target: Sodium-dependent dopamine transporter (Homo sapiens) (UniProt Q01959); details: Compound concentration 10.0 uM
[17] = molecular target: Beta-2 adrenergic receptor (Homo sapiens) (UniProt P07550); details: Compound concentration 10.0 uM
[18] = molecular target: Adenosine receptor A2a (Homo sapiens) (UniProt P29274); details: Compound concentration 10.0 uM
[19] = molecular target: Beta-2 adrenergic receptor (Homo sapiens) (UniProt P07550); details: Compound concentration 10.0 uM; remark: listed apart in the source
[20] = molecular target: B2 bradykinin receptor (Homo sapiens) (UniProt P30411); details: Compound concentration 10.0 uM
[21] = molecular target: Cannabinoid receptor 1 (Homo sapiens) (UniProt P21554); details: Compound concentration 10.0 uM
[22] = molecular target: Endothelin receptor type B (Homo sapiens) (UniProt P24530); details: Compound concentration 10.0 uM
[23] = molecular target: T1, Muscarinic acetylcholine receptor M1 (Homo sapiens) (UniProt P11229); details: Compound concentration 10.0 uM
T1 sequence (whole entry): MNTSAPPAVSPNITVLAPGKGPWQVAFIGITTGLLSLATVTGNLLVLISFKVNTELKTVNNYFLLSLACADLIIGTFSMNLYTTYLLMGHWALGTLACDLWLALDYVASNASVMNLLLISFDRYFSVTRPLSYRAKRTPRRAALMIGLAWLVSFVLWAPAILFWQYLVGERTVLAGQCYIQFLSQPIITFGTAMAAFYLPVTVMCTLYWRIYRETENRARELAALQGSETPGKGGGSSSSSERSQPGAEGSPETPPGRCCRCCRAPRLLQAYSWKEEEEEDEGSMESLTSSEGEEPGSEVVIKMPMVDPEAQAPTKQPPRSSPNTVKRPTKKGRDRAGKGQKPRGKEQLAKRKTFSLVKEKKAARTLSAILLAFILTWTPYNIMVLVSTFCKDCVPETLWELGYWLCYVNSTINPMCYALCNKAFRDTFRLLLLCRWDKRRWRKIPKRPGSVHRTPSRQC

[24] = molecular target: T2, Muscarinic acetylcholine receptor M2 (Homo sapiens) (UniProt P08172); details: Compound concentration 10.0 uM
T2 sequence (whole entry): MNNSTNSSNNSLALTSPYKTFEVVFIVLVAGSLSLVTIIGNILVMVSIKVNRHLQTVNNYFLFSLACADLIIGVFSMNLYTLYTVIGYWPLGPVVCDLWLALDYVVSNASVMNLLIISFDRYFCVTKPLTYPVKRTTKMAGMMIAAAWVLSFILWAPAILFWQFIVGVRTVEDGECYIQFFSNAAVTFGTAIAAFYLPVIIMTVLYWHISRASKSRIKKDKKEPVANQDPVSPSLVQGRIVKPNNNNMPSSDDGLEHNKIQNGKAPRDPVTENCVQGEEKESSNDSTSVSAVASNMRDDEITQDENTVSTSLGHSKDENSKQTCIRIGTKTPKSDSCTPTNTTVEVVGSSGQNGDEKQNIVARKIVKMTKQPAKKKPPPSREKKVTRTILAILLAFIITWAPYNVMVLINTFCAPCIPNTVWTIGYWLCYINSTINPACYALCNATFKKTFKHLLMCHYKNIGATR

[25] = molecular target: Delta-type opioid receptor (Homo sapiens) (UniProt P41143); details: Compound concentration 10.0 uM
[26] = molecular target: Kappa-type opioid receptor (Homo sapiens) (UniProt P41145); details: Compound concentration 10.0 uM
[27] = molecular target: Sodium-dependent dopamine transporter (Homo sapiens) (UniProt Q01959)
[28] = molecular target: Sodium-dependent noradrenaline transporter (Homo sapiens) (UniProt P23975); details: Compound concentration 10.0 uM
[29] = molecular target: Sodium-dependent serotonin transporter (Homo sapiens) (UniProt P31645); details: Compound concentration 10.0 uM
Chain of Sodium-dependent serotonin transporter (Homo sapiens) (P31645 whole entry, looked up): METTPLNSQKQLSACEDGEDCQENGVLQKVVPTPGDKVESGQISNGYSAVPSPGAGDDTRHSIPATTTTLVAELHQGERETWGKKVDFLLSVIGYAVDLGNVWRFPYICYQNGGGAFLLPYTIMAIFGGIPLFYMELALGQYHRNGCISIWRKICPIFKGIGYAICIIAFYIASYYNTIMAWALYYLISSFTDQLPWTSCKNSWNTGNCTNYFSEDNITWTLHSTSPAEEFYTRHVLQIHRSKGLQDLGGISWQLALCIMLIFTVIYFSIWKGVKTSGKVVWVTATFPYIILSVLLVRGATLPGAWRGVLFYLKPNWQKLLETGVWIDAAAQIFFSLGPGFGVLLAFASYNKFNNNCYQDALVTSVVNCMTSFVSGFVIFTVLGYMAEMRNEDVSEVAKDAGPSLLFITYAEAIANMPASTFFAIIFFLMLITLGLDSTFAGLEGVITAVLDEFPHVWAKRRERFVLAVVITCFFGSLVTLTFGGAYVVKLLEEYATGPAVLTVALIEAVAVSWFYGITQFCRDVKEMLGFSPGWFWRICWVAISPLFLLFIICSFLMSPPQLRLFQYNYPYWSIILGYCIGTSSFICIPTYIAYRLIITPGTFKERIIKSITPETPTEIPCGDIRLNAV

Chain of Sodium-dependent dopamine transporter (Homo sapiens) (Q01959 whole entry): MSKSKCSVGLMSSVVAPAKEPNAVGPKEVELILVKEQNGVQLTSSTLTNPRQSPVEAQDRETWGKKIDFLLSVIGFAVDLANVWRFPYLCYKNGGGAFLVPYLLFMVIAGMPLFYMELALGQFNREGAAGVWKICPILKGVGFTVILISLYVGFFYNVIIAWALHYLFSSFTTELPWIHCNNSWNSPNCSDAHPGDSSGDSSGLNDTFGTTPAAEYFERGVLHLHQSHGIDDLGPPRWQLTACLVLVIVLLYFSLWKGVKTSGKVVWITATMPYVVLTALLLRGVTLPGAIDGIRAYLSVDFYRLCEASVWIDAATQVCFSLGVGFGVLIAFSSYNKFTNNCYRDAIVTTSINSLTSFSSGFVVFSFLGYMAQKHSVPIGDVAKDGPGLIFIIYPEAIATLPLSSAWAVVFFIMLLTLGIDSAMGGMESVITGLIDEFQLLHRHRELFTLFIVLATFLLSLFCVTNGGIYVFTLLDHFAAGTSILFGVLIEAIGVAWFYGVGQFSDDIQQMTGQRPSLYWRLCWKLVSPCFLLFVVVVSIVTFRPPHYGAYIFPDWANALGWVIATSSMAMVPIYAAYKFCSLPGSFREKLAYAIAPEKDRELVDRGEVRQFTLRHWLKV
Chain of 5-hydroxytryptamine receptor 2C (P28335 whole entry): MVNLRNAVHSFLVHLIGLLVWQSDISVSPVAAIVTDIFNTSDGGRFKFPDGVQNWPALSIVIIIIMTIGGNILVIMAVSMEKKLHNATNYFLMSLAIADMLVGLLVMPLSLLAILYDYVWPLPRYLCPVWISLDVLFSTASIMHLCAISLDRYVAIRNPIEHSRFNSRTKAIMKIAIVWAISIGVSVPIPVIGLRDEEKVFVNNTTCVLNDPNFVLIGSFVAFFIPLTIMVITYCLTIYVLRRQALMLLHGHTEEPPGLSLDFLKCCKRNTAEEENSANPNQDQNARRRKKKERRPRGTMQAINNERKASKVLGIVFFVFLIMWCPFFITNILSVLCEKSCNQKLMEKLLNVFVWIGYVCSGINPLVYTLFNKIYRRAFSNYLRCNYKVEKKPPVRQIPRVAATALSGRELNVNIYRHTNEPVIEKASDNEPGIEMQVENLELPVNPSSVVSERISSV
Chain of Beta-2 adrenergic receptor (Homo sapiens) (P07550 whole entry, looked up): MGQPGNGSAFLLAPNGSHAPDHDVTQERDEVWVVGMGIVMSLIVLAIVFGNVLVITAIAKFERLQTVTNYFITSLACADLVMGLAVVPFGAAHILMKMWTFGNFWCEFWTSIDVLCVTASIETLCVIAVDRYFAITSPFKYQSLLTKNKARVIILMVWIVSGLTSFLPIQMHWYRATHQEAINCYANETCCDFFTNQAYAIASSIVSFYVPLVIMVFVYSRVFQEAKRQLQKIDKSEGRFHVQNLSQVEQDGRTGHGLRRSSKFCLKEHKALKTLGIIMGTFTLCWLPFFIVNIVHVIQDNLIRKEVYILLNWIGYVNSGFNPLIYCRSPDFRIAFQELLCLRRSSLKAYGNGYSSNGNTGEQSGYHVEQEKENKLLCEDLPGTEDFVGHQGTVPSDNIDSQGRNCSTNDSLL
Chain of Neuropeptide Y receptor type 1 (Homo sapiens) (P25929 whole entry): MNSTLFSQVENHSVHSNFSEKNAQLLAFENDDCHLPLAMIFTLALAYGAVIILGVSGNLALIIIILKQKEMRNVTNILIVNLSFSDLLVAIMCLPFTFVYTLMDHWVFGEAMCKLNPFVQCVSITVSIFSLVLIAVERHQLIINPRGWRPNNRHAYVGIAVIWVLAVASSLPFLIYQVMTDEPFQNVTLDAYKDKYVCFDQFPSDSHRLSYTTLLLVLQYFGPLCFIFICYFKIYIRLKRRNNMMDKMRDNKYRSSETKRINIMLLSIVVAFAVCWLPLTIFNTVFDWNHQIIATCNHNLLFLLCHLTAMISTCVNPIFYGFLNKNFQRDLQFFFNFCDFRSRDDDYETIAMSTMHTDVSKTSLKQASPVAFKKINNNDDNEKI
Chain of Glucocorticoid receptor (Homo sapiens) (P04150 whole entry): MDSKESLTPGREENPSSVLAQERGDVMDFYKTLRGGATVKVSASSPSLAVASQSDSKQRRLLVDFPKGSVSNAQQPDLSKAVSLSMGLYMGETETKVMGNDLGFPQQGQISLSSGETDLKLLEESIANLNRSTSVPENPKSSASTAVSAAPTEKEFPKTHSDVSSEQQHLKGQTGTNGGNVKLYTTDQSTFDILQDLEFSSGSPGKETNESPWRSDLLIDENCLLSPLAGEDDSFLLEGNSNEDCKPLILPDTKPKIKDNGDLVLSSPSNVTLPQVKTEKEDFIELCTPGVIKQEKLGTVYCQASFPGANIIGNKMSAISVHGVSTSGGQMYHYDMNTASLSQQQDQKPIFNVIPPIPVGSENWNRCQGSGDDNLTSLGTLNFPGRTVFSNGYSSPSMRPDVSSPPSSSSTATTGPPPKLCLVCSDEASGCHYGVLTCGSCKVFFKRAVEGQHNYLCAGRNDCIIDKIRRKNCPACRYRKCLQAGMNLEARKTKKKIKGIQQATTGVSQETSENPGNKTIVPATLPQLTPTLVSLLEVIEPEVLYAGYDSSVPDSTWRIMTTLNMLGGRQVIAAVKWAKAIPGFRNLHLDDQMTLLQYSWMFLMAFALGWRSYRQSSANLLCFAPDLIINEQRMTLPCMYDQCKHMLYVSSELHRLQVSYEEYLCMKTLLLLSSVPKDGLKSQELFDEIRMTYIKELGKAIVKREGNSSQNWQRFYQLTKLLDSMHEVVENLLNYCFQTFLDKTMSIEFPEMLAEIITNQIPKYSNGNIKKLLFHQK
Chain of Kappa-type opioid receptor (Homo sapiens) (P41145 whole entry): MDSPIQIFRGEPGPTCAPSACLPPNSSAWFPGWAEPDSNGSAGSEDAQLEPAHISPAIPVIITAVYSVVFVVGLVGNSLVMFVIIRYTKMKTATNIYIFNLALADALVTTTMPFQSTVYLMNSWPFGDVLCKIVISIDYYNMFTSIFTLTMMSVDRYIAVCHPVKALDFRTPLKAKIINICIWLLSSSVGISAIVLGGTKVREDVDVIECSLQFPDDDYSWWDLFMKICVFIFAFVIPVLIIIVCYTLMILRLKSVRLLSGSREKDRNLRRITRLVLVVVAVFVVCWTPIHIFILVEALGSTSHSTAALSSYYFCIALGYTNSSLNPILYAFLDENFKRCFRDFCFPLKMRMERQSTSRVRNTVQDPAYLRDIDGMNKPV
Chain of Endothelin receptor type B (Homo sapiens) (P24530 whole entry): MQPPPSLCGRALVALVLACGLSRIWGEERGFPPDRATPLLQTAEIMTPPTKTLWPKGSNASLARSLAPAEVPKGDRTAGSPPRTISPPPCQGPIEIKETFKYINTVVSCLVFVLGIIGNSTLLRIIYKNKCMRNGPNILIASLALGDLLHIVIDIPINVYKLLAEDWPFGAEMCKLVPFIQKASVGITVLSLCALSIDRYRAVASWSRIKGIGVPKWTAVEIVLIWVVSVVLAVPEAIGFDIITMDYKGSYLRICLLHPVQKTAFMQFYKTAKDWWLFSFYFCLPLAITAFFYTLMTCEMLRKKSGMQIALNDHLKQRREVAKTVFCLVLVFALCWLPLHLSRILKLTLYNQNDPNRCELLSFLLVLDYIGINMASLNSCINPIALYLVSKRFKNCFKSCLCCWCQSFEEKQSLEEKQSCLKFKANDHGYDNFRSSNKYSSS
Chain of Delta-type opioid receptor (Homo sapiens) (P41143 whole entry): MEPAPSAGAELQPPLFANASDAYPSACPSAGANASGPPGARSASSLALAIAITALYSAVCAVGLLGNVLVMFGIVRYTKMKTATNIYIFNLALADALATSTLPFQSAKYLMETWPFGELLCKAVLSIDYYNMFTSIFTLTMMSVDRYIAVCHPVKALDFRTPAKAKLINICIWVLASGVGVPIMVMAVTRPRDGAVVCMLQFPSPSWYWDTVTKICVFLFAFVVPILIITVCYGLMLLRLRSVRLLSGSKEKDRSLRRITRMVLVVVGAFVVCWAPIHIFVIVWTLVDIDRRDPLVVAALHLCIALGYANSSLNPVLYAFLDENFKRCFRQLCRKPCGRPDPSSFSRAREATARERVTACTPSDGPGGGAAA
Chain of Alpha-2C adrenergic receptor (P18825 whole entry): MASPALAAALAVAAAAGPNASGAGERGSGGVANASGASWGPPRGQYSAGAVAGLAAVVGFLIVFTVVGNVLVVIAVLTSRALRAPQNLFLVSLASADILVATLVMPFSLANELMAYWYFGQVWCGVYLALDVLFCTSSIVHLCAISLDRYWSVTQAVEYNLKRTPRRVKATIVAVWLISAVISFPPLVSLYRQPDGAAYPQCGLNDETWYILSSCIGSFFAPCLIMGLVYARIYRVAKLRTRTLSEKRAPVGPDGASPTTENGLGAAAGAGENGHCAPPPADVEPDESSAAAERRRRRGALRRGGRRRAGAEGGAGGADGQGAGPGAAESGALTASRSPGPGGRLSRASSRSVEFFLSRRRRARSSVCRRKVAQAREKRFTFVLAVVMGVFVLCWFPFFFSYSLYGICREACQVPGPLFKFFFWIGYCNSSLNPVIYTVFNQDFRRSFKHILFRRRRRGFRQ

For `NS(=O)(=O)c1cc(NC(=O)C2(c3ccccc3Cl)CC2)ccc1Oc1cccc(Cl)c1` [BAY-207], the Ki [1] was 0.654 µM, the Ki [2] was 0.25 µM and the pKi [2] was 6.62. It also gave a residual activity [3] of 95%.

In the case of `NS(=O)(=O)c1cc(NC(=O)Cc2ccccc2)ccc1Oc1cccc(Cl)c1` [BAY-1797], the Ki ([4]; read-out: Ki) is reported as 6.52 µM, the Ki ([4]; read-out: pKi (converted)) is reported as 5.89 µM and the inhibition [5] is reported as 2%. The inhibition [6] was 14%, the inhibition [7] was 20% and the inhibition [8] was 3%. For the same compound, the inhibition [9] was 10%, the inhibition [10] was 24% and the inhibition [11] was 9%. The inhibition at 60 min, 10 µM [12] was 8% (not active), the inhibition [13] was 8% and the inhibition [14] was 19%. It also gave an inhibition [15] of 4%, an inhibition [16] of 37% and an inhibition [17] of 18.9%. The inhibition [18] was 14%, the inhibition [19] was 2% and the inhibition [20] was 10%. For the same compound, the inhibition [21] was 44%, the inhibition [22] was -1% and the inhibition [23] was -6%. For the same compound, the inhibition [24] was 4%, the inhibition [25] was 4% and the inhibition [26] was 10%. It also gave an inhibition ([27]; Compound concentration 3.0 uM) of 60%, an inhibition ([27]; Compound concentration 10.0 uM) of 81% and an inhibition [28] of 47%. The inhibition [29] was 4%.
